According to patent US8486916B2, “Medicine, food and drink or feed containing sphingomyelin” (Megmilk Snow Brand Co., Ltd., priority 2005, dated 2013):

How the values were obtained:
[1] = system: lymphocytes from human milk; experiment: Test on promotion of secretory IgA production; format: cell-based; conditions: 3 μg added to 3 ml Petri dish; after 7 days
Method: 5 ml of aseptically collected human milk was diluted twice with a 10 mM phosphate-buffered saline (PBS, pH 7.2) containing 150 mM NaCl and then layered in a test tube containing 5 ml of a separation solution (mixed solution of 33.4% Conray 400 (manufactured by Daiichi Pharmaceutical Co., Ltd.) and 9% Ficoll (manufactured by Pharmacia) at a ratio of 5:12). After centrifugation at 400×G for 30 minutes, the intermediate layer in which lymphocytes were gathered was collected with a Pasteur pipette. The lymphocytes were dispersed and washed in 10 ml of PBS and then centrifuged at 150×G for 10 minutes. This washing procedure was repeated three times. Then, 12 ml of an RPMI-1640 medium containing insulin (10 μg/ml) and transferrin (5 μg/ml) was added thereto, and the mixture was dispensed in an amount of 3 ml/Petri dish into 3 Petri dishes (A; […]

β-Lg = experiment: Test on effect of blocking allergen invasion (β-Lg and anti-β-Lg IgE in blood); format: in vivo, Infant Wistar rats; conditions: for Anti-β-Lg IgE: blood 2 weeks after β-Lg; for β-Lg: blood 1 hour after β-Lg
Method: Infant Wistar rats (14 day old, body weight: around 20 g, 8 individuals, Charles River Laboratories, Japan) were divided into a control group and sphingomyelin administration groups (SPM administration groups), and all the groups were raised using artificial milk having composition closely analogous to that of rat milk. […] On the 21st day, 100 μl of a β-Lg solution (10 mg/ml) was orally administered thereto. Blood collected from the rats after 1 hour and after 2 weeks. On the other hand, a β-Lg solution and a complete Freund adjuvant were mixed for emulsification, and the emulsion was hypodermically injected to 3 locations (both sides of the back, and the hip) of a 3-month-old rabbit (Japanese white, male, manufactured by KITAYAMA LABES Co., Ltd.) to obtain anti-β-Lg serum. A β-Lg amount in the above-described blood after 1 hour was measured by a sandwich ELISA method using this antiserum as a primary antibody and a horseradish peroxidase (PO)-labeled secondary antibody. Moreover, anti-β-Lg IgE in the above-described blood after 2 weeks was measured by an ELISA method using β-Lg and a PO-labeled anti-rat IgE antibody (manufactured by Nordic).

[2] = system: erythrocyte membrane ghost; experiment: Antioxidative activity: erythrocyte membrane ghost oxidation (TBA reaction); format: biochemical, rabbit
Method: The antioxidative activity of sphingomyelin was measured according to the method of Osawa et al. (J. Agric. Food Chem., vol. 35, pp. 809-812, 1987). Specifically, preserved rabbit blood was mixed with an equal amount of an isotonic solution (10 mM phosphate buffer/152 mM sodium chloride, pH 7.4), followed by centrifugation at 1,500×g (3,500 rpm) at 4° C. for 20 minutes. Blood corpuscles washed by repeating this procedure three times were mixed with an equal amount of a hypotonic solution (10 mM phosphate buffer, pH 7.4), followed by centrifugation at 20,000×g (11,000 rpm) at 4° C. for 40 minutes. Then, loose pellets (erythrocyte membrane ghost) obtained by repeating this procedure four times were used to examine antioxidative activity. […] An oxidation reaction was performed by the addition of an oxidizing agent. Subsequently, a TBA reaction was performed. Then, absorbance at 532 nm was measured to quantify an oxidation product.

EAE rats = experiment: Effect of sphingomyelin on EAE rats; format: in vivo, Lewis rats; conditions: for Cumulative score of symptoms: six-grade score 0-5
Method: A therapeutic effect on EAE rats serving as models of multiple sclerosis, one of demyelinating diseases, will be shown. The hind footpad of Lewis rats (female, 6 week old) in groups each containing 5 individuals was immunized with a mixture of syngeneic rat brain homogenates with an equal amount of a complete Freund adjuvant (manufactured by Difco) as an antigen for inducing EAE at a dose of 80 mg in terms of the amount of the brain homogenates. Sphingomyelin was intraperitoneally administered at a dose shown in Table 9 for 18 days from the immunization day. The measurement of body weights and the observation of EAE symptoms were performed every day. […] The therapeutic effect was assessed based on the cumulative score of the symptoms in each group. […] Only a saline was administered to the control group.

[3] = system: plaque-forming cells against the sheep red blood cells; experiment: Inhibitory effect on antibody production (IgM PFC against sheep red blood cells); format: in vivo, Lewis rats; conditions: 2 mg/kg
Method: A mechanism under which sphingomyelin inhibits the onset of EAE was studied. […] The spleen was excised from each rat on the 18th day, and a single cell suspension was aseptically prepared therefrom. The red blood cells were removed by a hemolysis method. After washing with an RPMI-1640 medium, a cell suspension was prepared at a cell density of […]. The number of plaque-forming cells against the sheep red blood cells was counted according to the method of Jerne and used as the number of IgM PFC. From the results shown in Table 11, it was confirmed that sphingomyelin has inhibitory activity against antibody production.

[4] = system: pigmentation in the back skin of the guinea pigs; experiment: Anti-pigmentation effect by oral administration (ultraviolet-irradiated skin); format: in vivo, A-1 guinea pigs
Method: Sphingomyelin was tested for its anti-pigmentation effect by oral administration. The back of female A-1 guinea pigs (body weight: approximately 400 g) was shaved and irradiated with ultraviolet rays (UVA (max. 360 nm): 30.3 kJ/m^2, UVB (max. 312 nm): 4.8 kJ/m^2) once daily for 4 days. […] The oral administration to each group was performed once daily using a sonde, and the guinea pigs were raised for 4 weeks. The sphingomyelin raw material of Example 1 was suspended in 10 g of a saline, and this suspension was orally administered to each of the groups B to D. Influence on pigmentation in the back skin of the guinea pigs in each group was measured with a colorimeter (CHROMA METER CR-200) manufactured by MINOLTA at the start of sample administration and at the completion of sample administration. A lightness recovery rate from the start of sample administration was calculated.

[5] = 1 mg/kg intraperitoneal for 18 days
[6] = 2 mg/kg intraperitoneal for 18 days

sphingomyelin
IgA content in the culture solution [1]: 3.11 µg/mL | Anti-β-Lg IgE (β-Lg; 0.05 mg/kg/day oral): 498.2 ± 156.8 ng/mL | β-Lg (β-Lg; 0.05 mg/kg/day oral): 38.6 ± 14.7 ng/mL | Anti-β-Lg IgE (β-Lg; 0.1 mg/kg/day oral): 190.6 ± 77.8 ng/mL | β-Lg (β-Lg; 0.1 mg/kg/day oral): 13.4 ± 6.6 ng/mL | Anti-β-Lg IgE (β-Lg; 5.0 mg/kg/day oral): 165.4 ± 65.9 ng/mL | β-Lg (β-Lg; 5.0 mg/kg/day oral): 5.6 ± 3.8 ng/mL | absorbance at 532 nm (oxidation product) with respect to absence of added sphingomyelin defined as 100% ([2]; sample concentration 0.01 mM, lower = higher antioxidative activity): 98% | absorbance at 532 nm (oxidation product) with respect to absence of added sphingomyelin defined as 100% ([2]; sample concentration 0.1 mM): 95% | absorbance at 532 nm (oxidation product) with respect to absence of added sphingomyelin defined as 100% ([2]; sample concentration 1 mM): 80% | absorbance at 532 nm (oxidation product) with respect to absence of added sphingomyelin defined as 100% ([2]; sample concentration 10 mM): 61% | Cumulative score of symptoms with respect to saline-administered control group defined as 100% (EAE rats; [5]): 18% | Frequency of onset (EAE rats; [5]): 2/5 | The average number of days required for onset (EAE rats; [5]): 15.2 | Cumulative score of symptoms (EAE rats; [5]): 10 | Cumulative score of symptoms with respect to saline-administered control group defined as 100% (EAE rats; [6]): 19% | Frequency of onset (EAE rats; [6]): 2/5 | The average number of days required for onset (EAE rats; [6]): 14.5 | Cumulative score of symptoms (EAE rats; [6]): 11 | Average IgM/10^3 spl with respect to saline-administered control group defined as 100% [3]: 20% | Average IgM/10^3 spl ([3]; spleen cells on the 18th day, saline 138): 27 | Lightness recovery rate ([4]; 2 mg/kg oral once daily for 4 weeks (group B), group A 31): 48% | Lightness recovery rate ([4]; 5 mg/kg oral once daily for 4 weeks (group C)): 62% | Lightness recovery rate ([4]; 10 mg/kg oral once daily for 4 weeks (group D)): 78% | lightness recovery rate relative to that in the group A ([4]; groups B to D versus saline group A, 4-week oral administration): up to 2.5 times
